From patent US10934310B2, “Inhibitors of Bruton's tyrosine kinase and method of their use” (JANSSEN PHARMACEUTICA NV, priority 2015, dated 2021)

Each compound was assayed against unphosphorylated-BTK kinase domain (UP-BTK), GST-tagged human BTK (389-659aa) (Homo sapiens (Human), UniProt Q06187) (assay: BTK Kinase Lanthascreen Binding Assay). Settings: Lanthascreen binding, 60 minutes incubation; pIC50 = negative log of the IC50 in molar.
Experimental: BTK Kinase Lanthascreen Binding Assay:
A BTK kinase lanthascreen binding assay monitors compound binding to unphosphorylated-BTK kinase domain (UP-BTK), by competing with a fluorescent labeled tracer. […] Data were analyzed using Xlfit™ version 5.3 from ID Business Solutions (Guildford), Microsoft Excel add-in. pIC50 refers to the negative log of the IC50 in molar.

Chain of unphosphorylated-BTK kinase domain (UP-BTK), GST-tagged human BTK (389-659aa) (Q06187 389-659): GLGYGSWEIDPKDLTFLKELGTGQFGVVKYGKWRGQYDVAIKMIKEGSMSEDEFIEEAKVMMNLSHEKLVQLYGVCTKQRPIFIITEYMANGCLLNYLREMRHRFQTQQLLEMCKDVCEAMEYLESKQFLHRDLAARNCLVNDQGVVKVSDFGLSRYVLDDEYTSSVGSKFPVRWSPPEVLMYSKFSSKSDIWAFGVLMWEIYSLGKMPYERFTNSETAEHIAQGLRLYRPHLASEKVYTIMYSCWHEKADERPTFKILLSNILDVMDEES

Compound	BTK_I_binding pIC50
C=CC(=O)N[C@H]1CCC[C@H]1NC(=O)c1sc2nccc3c2c1NC(=O)N3c1ccc(Oc2cccnc2C)cc1 [Example 372, N-((1R,2S)-2-Acrylamidocyclopentyl)-5-(4-((2-methylpyridin-3-yl)oxy)phenyl)-4-oxo-4,5-dihydro-3H-1-thia-3,5,8-triazaacenaphthylene-2-carboxamide]	7.93
C=CC(=O)N[C@H]1CCC[C@H]1NC(=O)c1sc2nccc3c2c1NC(=O)N3c1ccnc(C2CCC2)c1 [Example 376, N-((1R,2S)-2-Acrylamidocyclopentyl)-5-(2-cyclobutylpyridin-4-yl)-4-oxo-4,5-dihydro-3H-1-thia-3,5,8-triazaacenaphthylene-2-carboxamide]	7.81
C=CC(=O)N[C@@H]1CCC[C@H]1NC(=O)c1sc2nccc3c2c1NC(=O)N3c1ccnc(C2CCC2)c1 [Example 379, N-((1R,2R)-2-Acrylamidocyclopentyl)-5-(2-cyclobutylpyridin-4-yl)-4-oxo-4,5-dihydro-3H-1-thia-3,5,8-triazaacenaphthylene-2-carboxamide]	6.80
C=CC(=O)N[C@H]1CCC[C@H]1NC(=O)c1sc2nccc3c2c1NC(=O)N3c1ccc(O[C@H]2CCOC2)cc1C [Example 383, N-((1R,2S)-2-Acrylamidocyclopentyl)-5-(2-methyl-4-(((S)-tetrahydrofuran-3-yl)oxy)phenyl)-4-oxo-4,5-dihydro-3H-1-thia-3,5,8-triazaacenaphthylene-2-carboxamide]	7.45
C=CC(=O)N[C@H]1CCC[C@H]1NC(=O)c1sc2nccc3c2c1NC(=O)N3c1ccc(Oc2ccc(C)nc2)cc1C [Example 384, N-((1R,2S)-2-Acrylamidocyclopentyl)-5-(2-methyl-4-((6-methylpyridin-3-yl)oxy)phenyl)-4-oxo-4,5-dihydro-3H-1-thia-3,5,8-triazaacenaphthylene-2-carboxamide]	7.54
C=CC(=O)N[C@H]1CCC[C@H]1NC(=O)c1sc2nccc3c2c1NC(=O)N3c1ccc(O[C@@H]2CCOC2)cc1C [Example 386, N-((1R,2S)-2-Acrylamidocyclopentyl)-5-(2-methyl-4-(((R)-tetrahydrofuran-3-yl)oxy)phenyl)-4-oxo-4,5-dihydro-3H-1-thia-3,5,8-triazaacenaphthylene-2-carboxamide]	7.09
C=CC(=O)N[C@H]1CCC[C@H]1NC(=O)c1sc2nccc3c2c1NC(=O)N3c1ccc(Oc2cccnn2)cc1 [Example 387, N-((1R,2S)-2-Acrylamidocyclopentyl)-4-oxo-5-(4-(pyridazin-3-yloxy)phenyl)-4,5-dihydro-3H-1-thia-3,5,8-triazaacenaphthylene-2-carboxamide]	7.16
O=C(N[C@@H]1CCC[C@H]1O)c1sc2nccc3c2c1NC(=O)N3c1ccc(Oc2ccccc2)cc1 [Example 393, N-((1R,2R)-2-Hydroxycyclopentyl)-4-oxo-5-(4-phenoxyphenyl)-4,5-dihydro-3H-1-thia-3,5,8-triazaacenaphthylene-2-carboxamide]	6.74
CC(=O)N[C@H]1CCC[C@H]1NC(=O)c1sc2nccc3c2c1NC(=O)N3c1ccc(Oc2ccccc2)cc1 [Example 396, N-((1R,2S)-2-Acetamidocyclopentyl)-4-oxo-5-(4-phenoxyphenyl)-4,5-dihydro-3H-1-thia-3,5,8-triazaacenaphthylene-2-carboxamide]	6.66
CCC(=O)N[C@H]1CCC[C@H]1NC(=O)c1sc2nccc3c2c1NC(=O)N3c1ccc(Oc2ccccc2)cc1 [Example 398, 4-Oxo-5-(4-phenoxyphenyl)-N-((1R,2S)-2-propionamidocyclopentyl)-4,5-dihydro-3H-1-thia-3,5,8-triazaacenaphthylene-2-carboxamide]	6.56
C=CC(=O)N[C@H]1CCCC[C@H]1NC(=O)c1sc2nccc3c2c1NC(=O)N3c1ccc(Oc2ccccn2)cc1C [Example 401, N-((1R,2S)-2-Acrylamidocyclohexyl)-5-(2-methyl-4-(pyridin-2-yloxy)phenyl)-4-oxo-4,5-dihydro-3H-1-thia-3,5,8-triazaacenaphthylene-2-carboxamide]	6.39
C=CC(=O)N[C@H]1CCCC[C@H]1NC(=O)c1sc2nccc3c2c1NC(=O)N3c1ccc(Oc2cccnn2)cc1C [Example 406, N-((1R,2S)-2-Acrylamidocyclohexyl)-5-(2-methyl-4-(pyridazin-3-yloxy)phenyl)-4-oxo-4,5-dihydro-3H-1-thia-3,5,8-triazaacenaphthylene-2-carboxamide]	6.13
CN[C@H]1CCN(C(=O)c2sc3nccc4c3c2NC(=O)N4c2ccc(Oc3ccccc3)cc2C)C1 [Example 417, (S)-5-(2-Methyl-4-phenoxyphenyl)-2-(3-(methylamino)pyrrolidine-1-carbonyl)-3H-1-thia-3,5,8-triazaacenaphthylen-4(5H)-one]	5.89

Other lines, results leading:

BTK_I_binding pIC50	Compound
5.80	CCC(=O)N[C@H]1CCN(C(=O)c2sc3nccc4c3c2NC(=O)N4c2ccc(Oc3ccccc3)cc2C)C1 [Example 418, (S)—N-(1-(5-(2-Methyl-4-phenoxyphenyl)-4-oxo-4,5-dihydro-3H-1-thia-3,5,8-triazaacenaphthylene-2-carbonyl)pyrrolidin-3-yl)propionamide]
5.79	CC(=O)N[C@H]1CCN(C(=O)c2sc3nccc4c3c2NC(=O)N4c2ccc(Oc3ccccc3)cc2C)C1 [Example 419, (S)—N-(1-(5-(2-Methyl-4-phenoxyphenyl)-4-oxo-4,5-dihydro-3H-1-thia-3,5,8-triazaacenaphthylene-2-carbonyl)pyrrolidin-3-yl)acetamide]
5.73	Cc1cc(Oc2ccccc2)ccc1N1C(=O)Nc2c(C(=O)N3CC[C@H](N)C3)sc3nccc1c23 [Example 420, (S)-2-(3-Aminopyrrolidine-1-carbonyl)-5-(2-methyl-4-phenoxyphenyl)-3H-1-thia-3,5,8-triazaacenaphthylen-4(5H)-one]
5.66	Cc1cc(Oc2ccccc2)ccc1N1C(=O)Nc2c(C(=O)N3CC[C@H](N(C)C)C3)sc3nccc1c23 [Example 421, (S)-2-(3-(Dimethylamino)pyrrolidine-1-carbonyl)-5-(2-methyl-4-phenoxyphenyl)-3H-1-thia-3,5,8-triazaacenaphthylen-4(5H)-one]
7.45	CC(=O)N[C@H]1CC[C@H](NC(=O)c2sc3nccc4c3c2NC(=O)N4c2cnc(Oc3ccccc3)cc2C)CC1 [Example 432, N-((1r,4r)-4-Acetamidocyclohexyl)-5-(*S)-(4-methyl-6-phenoxypyridin-3-yl)-4-oxo-4,5-dihydro-3H-1-thia-3,5,8-triazaacenaphthylene-2-carboxamide]
7.01	C=CC(=O)N[C@H]1CCN(C(=O)c2sc3nccc4c3c2NC(=O)N4c2ccc(Oc3ccccc3)cc2C)C1 [Example 433, (S)—N-(1-(5-(2-Methyl-4-phenoxyphenyl)-4-oxo-4,5-dihydro-3H-1-thia-3,5,8-triazaacenaphthylene-2-carbonyl)pyrrolidin-3-yl)acrylamide]
6.29	C=CC(=O)N[C@@H]1CCN(C(=O)c2sc3nccc4c3c2NC(=O)N4c2ccc(Oc3ccccc3)cc2C)C1 [Example 434, (R)—N-(1-(5-(2-Methyl-4-phenoxyphenyl)-4-oxo-4,5-dihydro-3H-1-thia-3,5,8-triazaacenaphthylene-2-carbonyl)pyrrolidin-3-yl)acrylamide]
6.15	Cc1cc(Oc2ccccc2)ccc1N1C(=O)Nc2c(C(=O)N3CC[C@H](NC(=O)/C(C#N)=C/C4CC4)C3)sc3nccc1c23 [Example 435, (S,E)-2-Cyano-3-cyclopropyl-N-(1-(5-(2-methyl-4-phenoxyphenyl)-4-oxo-4,5-dihydro-3H-1-thia-3,5,8-triazaacenaphthylene-2-carbonyl)pyrrolidin-3-yl)acrylamide]
6.09	Cc1cc(Oc2ccccc2)ccc1N1C(=O)Nc2c(C(=O)N3CC[C@@H](NC(=O)/C(C#N)=C/C4CC4)C3)sc3nccc1c23 [Example 436, (R,E)-2-Cyano-3-cyclopropyl-N-(1-(5-(2-methyl-4-phenoxyphenyl)-4-oxo-4,5-dihydro-3H-1-thia-3,5,8-triazaacenaphthylene-2-carbonyl)pyrrolidin-3-yl)acrylamide]
8.38	C=CC(=O)N[C@H]1CCC[C@H]1NC(=O)c1sc2nccc3c2c1NC(=O)N3c1ccc(Oc2ccccn2)cc1 [Example 437, N-((1R,2S)-2-Acrylamidocyclopentyl)-4-oxo-5-(4-(pyridin-2-yloxy)phenyl)-4,5-dihydro-3H-1-thia-3,5,8-triazaacenaphthylene-2-carboxamide]
8.02	C=CC(=O)N[C@H]1CCC[C@H]1NC(=O)c1sc2nccc3c2c1NC(=O)N3c1cccc(C(C)C)c1 [Example 438, N-((1R,2S)-2-Acrylamidocyclopentyl)-5-(3-isopropylphenyl)-4-oxo-4,5-dihydro-3H-1-thia-3,5,8-triazaacenaphthylene-2-carboxamide]
6.84	C=CC(=O)N[C@H]1CCCC[C@H]1NC(=O)c1sc2nccc3c2c1NC(=O)N3c1ccc(Oc2ccccn2)cc1 [Example 442, N-((1R,2S)-2-Acrylamidocyclohexyl)-4-oxo-5-(4-(pyridin-2-yloxy)phenyl)-4,5-dihydro-3H-1-thia-3,5,8-triazaacenaphthylene-2-carboxamide]
6.32	Cc1cc(OC(C)C)ccc1N1C(=O)Nc2c(C(=O)N[C@@H]3CCC[C@@H]3N)sc3nccc1c23 [Example 453, N-((1R,2S)-2-Aminocyclopentyl)-5-(4-isopropoxy-2-methylphenyl)-4-oxo-4,5-dihydro-3H-1-thia-3,5,8-triazaacenaphthylene-2-carboxamide]

Same assay, conditions: read-out: BTK_I_binding pIC50 (converted)

IC50 [nM]	Compound
> 1000	C=CC(=O)N[C@H]1CCCC[C@H]1NC(=O)c1sc2nccc3c2c1NC(=O)N3c1ccc(Oc2cccnn2)cc1 [Example 408, N-((1R,2S)-2-Acrylamidocyclohexyl)-4-oxo-5-(4-(pyridazin-3-yloxy)phenyl)-4,5-dihydro-3H-1-thia-3,5,8-triazaacenaphthylene-2-carboxamide]
